Assay results taken from patent US20240252493A1, “Apelin Receptor Modulators for Treating Age-Related Muscle Conditions” (BIOAGE LABS, INC., priority 2021, published 2024).
“Also recorded” adds a separate entry of the source.

Experiments:
[1] = tested on: Pax7, MyoD, MyoG, Myf5, MyHC3, and MyHC8; experiment: CTX-induced muscle injury: transcript levels of regeneration genes; assay type: in vivo, mice
Method: Impairment of muscle regeneration can contribute to age-related muscle weakness. This is particularly true in aged individuals who engage in physical activity. Exercise-induced muscle hypertrophy is linked to the capacity of muscle stem cells to be activated and promote regeneration. […] Mice were i.p injected with buprenorphine (Centravet, 0.1 mg/kg) 30 minutes before injury and the day after. The day of the injury, mice were anesthetized with isoflurane inhalation and hindlimbs were shaved. Then, 10 μM of cardiotoxin (CTX, Latoxan, #L8102) was injected through two injections of 25 μl into the left tibialis muscle and two injections of 50 μl into the left gastrocnemius muscle, using a 22-gauge needle (Hamilton). Mice were euthanized 3 and 7 days after injury by cervical dislocation, muscles (PBS- and CTX-injected) were cut in two parts, one being snap frozen into liquid nitrogen for total RNA extraction and the other part being embedded into OCT, frozen in isopentane cooled with liquid nitrogen for histological analysis.

[2] = tested on: aged (24-month-old) C57BL/6 mice; experiment: Activity monitoring wheel test (frailty study); assay type: in vivo; details: 24-month-old mice
Method: The animals were housed with access to voluntary running wheels that wirelessly transmit running data to a computer for analysis. Voluntary running wheel activity levels were measured daily, and body weights were measured every 2 weeks.
The study concluded on Study Day 83. Activity wheel monitoring started on Study Day 1 and ended on Study Day 83 (Phase Day 64). The data was analyzed at the end of the study. […] For the frailty portion of the study, mice were assessed using an activity monitoring wheel which was monitored passively with a computer monitoring system. […]
The activity-monitoring wheel is a running disk that monitors rotations. […] Activity was monitored passively and wirelessly with a computer monitoring system. Running wheel activity levels were monitored daily. […] Mouse activity levels were measured as the number of wheel revolutions per day for each mouse and converted into a daily count of kilometers run using the diameter of the wheel. Within each experimental group, the daily median value for activity was calculated. […] The daily differences between the distances run in each group were calculated and tested for an increasing trend using Kendall's rank correlation tau.

phosphorylation of Akt = experiment: Western blot of Akt phosphorylation in rat tibialis anterior; assay type: in vivo; details: rats
From the text: Administration of an apelin receptor agonist can induce the phosphorylation and activation of AMPK in heart tissue. Tissue samples were lysed using T-PER tissue protein extraction reagent (Thermo Fisher Scientific #78510) containing EDTA and protease/phosphatase inhibitors on the Omni Bead Ruptor 12 Homogenizer. Total protein was extracted then quantified using Pierce™ BCA Protein Assay Kit. Loaded equal amounts of total protein per lane on a 4-12% SDS-PAGE gel and transferred to PVDF membrane. Membranes were blocked and blotted with anti-phospho-AMPKα-Thr172 (Cell Signaling Technology, CST #2535), total-AMPKα (CST #2532), anti-phospho-Akt-SeR^473 (CST #4060), total-Akt (CST #4685), anti-phospho-ERK-1/2-Thr202/Tyr204 of Erk1 and Thr185/Tyr187 of Erk2 (CST #4370), total-ERK-1/2 (CST #9107) or anti-APLNR receptor (abcam, ab214369) antibodies. Band intensities were normalized to loading control anti-β-Actin (CST #3700) or anti-GAPDH (abcam, ab181602) antibodies. Immunoreactive proteins were detected using SuperSignal™ West Femto Substrate (Thermo Fisher Scientific #34095) and quantified by Image Lab™ software (Bio-Rad Laboratories, Inc.).
The difference between tissues was conserved among rodent species: In rats, as in mice, apelin receptor levels in rat tissue were 2-fold higher in heart than in soleus, FIGS. 5A-5B. […]

[3] = gastrocnemius, aged mice, 3 or 7 days, apelin 0.5 μmol/kg/day, BGE-105 50 and 200 mg/kg/day
[4] = gastrocnemius, young mice, 3 or 7 days, apelin 0.5 μmol/kg/day, BGE-105 50 and 200 mg/kg/day
[5] = tibialis anterior, aged mice, 7 days, apelin 0.5 μmol/kg/day, BGE-105 50 and 200 mg/kg/day
[6] = tibialis, young mice, 3 or 7 days, apelin 0.5 μmol/kg/day, BGE-105 50 and 200 mg/kg/day

Compound: COc1cccc(OC)c1-n1c(NS(=O)(=O)[C@@H](C)[C@H](C)c2ncc(C)cn2)nnc1-c1cncc(C)c1 [BGE-105, (2S,3R)—N-(4-(2,6-dimethoxyphenyl)-5-(5-methyl-3-pyridinyl)-4H-1,2,4-triazol-3-yl)-3-(5-methyl-2-pyrimidinyl)-2-butanesulfonamide]
- expression levels of genes involved in muscle regeneration (Pax7, MyoD, MyoG, Myf5, MyHC3, MyHC8) ([1]; aged (18-month-old) mice, tibialis, 7 days after CTX, vs PBS): significantly higher levels of several mRNA transcripts; also recorded: dramatically higher
- effect on regeneration gene expression in gastrocnemius compared with tibialis ([1]; aged mice, gastrocnemius): not as prominent
- Pax7 transcript levels ([1]; gastrocnemius, aged (18-month-old) mice, 3 or 7 days, apelin 0.5 μmol/kg/day, BGE-105 50 and 200 mg/kg/day): no significant change
- MyoD transcript levels ([1]; gastrocnemius, aged mice, 3 and 7 days, apelin 0.5 μmol/kg/day, BGE-105 50 and 200 mg/kg/day): significant increase
- Myf5 transcript levels [1, 3]: no significant change
- MyoG transcript levels [1, 3]: no significant change
- MyHC8 transcript levels ([1]; gastrocnemius, aged mice, any time point, any treatment): does not show a change
- MyHC3 transcript levels ([1]; gastrocnemius, aged mice, only at 7 days, BGE-105 200 mg/kg/day): significant increase
- Pax7 transcript levels ([1]; gastrocnemius, young (3-month-old) mice, 3 or 7 days, apelin 0.5 μmol/kg/day, BGE-105 50 and 200 mg/kg/day): no change
- Myf5 transcript levels [1, 4]: no change
- MyoD transcript levels [1, 4]: no change
- MyoG transcript levels [1, 4]: no change
- MyHC8 transcript levels ([1]; gastrocnemius, young mice, 3 days, apelin 0.5 μmol/kg/day, BGE-105 50 and 200 mg/kg/day): non-significant increase
- MyHC3 transcript levels ([1]; gastrocnemius, young mice, only 3 days, BGE-105 50 mg/kg/day): increase
- Pax7 transcript levels ([1]; tibialis anterior, aged (18-month-old) mice, 7 days post cardiotoxin, apelin 0.5 μmol/kg/day, BGE-105 50 and 200 mg/kg/day): significant increase
- MyoD transcript levels ([1]; tibialis anterior, aged mice, 3 and 7 days post cardiotoxin, apelin 0.5 μmol/kg/day, BGE-105 50 and 200 mg/kg/day): significant increase
- MyHC3 transcript levels [1, 5]: significant increase
- Myf5 transcript levels [1, 5]: significant change
- MyoG transcript levels [1, 5]: significant increase
- Pax7 transcript levels ([1]; tibialis, young (3-month-old) mice, 3 or 7 days, apelin 0.5 μmol/kg/day, BGE-105 50 and 200 mg/kg/day): no change
- MyHC3 transcript levels [1, 6]: no significant change
- MyHC8 transcript levels [1, 6]: no significant change
- Myf5 transcript levels [1, 6]: no difference
- MyoD transcript levels [1, 6]: no significant increase
- MyoG transcript levels [1, 6]: no difference
- effect on regeneration gene expression in young mice ([1]; young (3-month-old) mice): not as effective
- voluntary running wheel activity vs age-matched controls ([2]; 275 ug/mL in drinking water ad libitum, 64 days): statistically significant increase in voluntary motor activity; also recorded: significantly more active; also recorded: decreased significantly less
- distance run more than vehicle-treated mice at end of experimental period ([2]; 275 ug/mL in drinking water, both experiments, on average): at least 1 km/day
- phosphorylation of Akt in TA (phosphorylation of Akt; oral 50 mg/kg BID, 5 consecutive days): strongest response
- phosphorylation of Akt in TA (phosphorylation of Akt; oral dosing 5 consecutive days, across doses): dose-dependent manner
